Measured values: the supplement of paper PMC7108870

Experiments:
HEK293sieSTAT3(Y640F) [1] = assay: drug sensitivity score (DSS), cytotoxicity CellTox Green (DSS (dimensionless)); higher = more cytotoxic; extreme values may be limits of the assay; conditions: 72 h; STAT3 variant: Y640F (constitutively active)
Outline: (§1)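 HEK293 cells carrying a STAT3-dependent luciferase reporter and overexpressing wild-type or mutant STAT3 (20 μl at 100,000 cells/ml) were added to compounds acoustically pre-plated at 5 concentrations in 10-fold dilutions in 384-well plates. After 72 hours at 37°C and 5% CO2, CellTox Green fluorescence (485/520 nm) and then CellTiter-Glo luminescence were read on a PHERAstar FS. Values were normalised to negative and positive control wells, and a drug sensitivity score based on dose-response curve area was computed in Breeze. Each value comes from one representative of two experiments.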

HEK293sieSTAT3(wt) [2] = assay: as above; conditions: 72 h; STAT3 variant: wild type
Outline: as §1

HEK293sieSTAT3(Y640F) [3] = assay: drug sensitivity score (DSS), viability CellTiter-Glo (DSS (dimensionless)); higher = more growth inhibition; extreme values may be limits of the assay; conditions: 72 h; STAT3 variant: Y640F (constitutively active)
Outline: as §1

HEK293sieSTAT3(wt) [4] = assay: as above; conditions: 72 h; STAT3 variant: wild type
Outline: as §1

Row | Compound | drug sensitivity score (HEK293sieSTAT3(Y640F) [1]) | drug sensitivity score (HEK293sieSTAT3(wt) [2]) | drug sensitivity score (HEK293sieSTAT3(Y640F) [3]) | drug sensitivity score (HEK293sieSTAT3(wt) [4])
1 | Cc1cnc(Nc2ccc(OCCN3CCCC3)cc2)nc1Nc1cccc(S(=O)(=O)NC(C)(C)C)c1 [Fedratinib] (top concentration tested 10000 nM) | 5.36 | 9.22 | 7.35 | 8.5
2 | CON(C)C(=O)N1N=C(c2cc(F)ccc2F)S[C@@]1(CCCN)c1ccccc1 [Filanesib] (top concentration tested 1000 nM) | 0.58 | 17 | 15 | 21.2
3 | O=C(Nc1nc2cccc(-c3ccc(CN4CCS(=O)(=O)CC4)cc3)n2n1)C1CC1 [Filgotinib] (top concentration tested 10000 nM) | 5.91 | 6.22 | 8.86 | 6.84
4 | CC(C)(C)NC(=O)[C@H]1CC[C@H]2[C@@H]3CC[C@H]4NC(=O)C=C[C@]4(C)[C@H]3CC[C@]12C [Finasteride] (top concentration tested 10000 nM) | 0.18 | 1.18 | 3.82 | 1.63
5 | CCCCCCCCc1ccc(CCC(N)(CO)CO)cc1 [Fingolimod] (top concentration tested 10000 nM) | 5.85 | 7.2 | 6.17 | 8.27
6 | O=c1[nH]c(=O)n([C@H]2C[C@H](O)[C@@H](CO)O2)cc1F [Floxuridine] (top concentration tested 10000 nM) | 0.42 | 1.28 | 27.2 | 29
7 | Nc1nc(F)nc2c1ncn2[C@@H]1O[C@H](CO)[C@@H](O)[C@@H]1O [Fludarabine] (top concentration tested 10000 nM) | 0 | 0 | 0.19 | 3.07
8 | O=c1[nH]cc(F)c(=O)[nH]1 [Fluorouracil] (top concentration tested 10000 nM) | 0 | 0 | 6.62 | 6.27
9 | CC(C)C(=O)Nc1ccc([N+](=O)[O-])c(C(F)(F)F)c1 [Flutamide] (top concentration tested 10000 nM) | 0 | 0 | 0.25 | 0
10 | COc1cc2c(Oc3ccc(NC(=O)C4(C(=O)Nc5ccc(F)cc5)CC4)cc3F)ccnc2cc1OCCCN1CCOCC1 [Foretinib] (top concentration tested 1000 nM) | 0 | 5.97 | 6.63 | 5.99
11 | COc1cc(Nc2ncc(F)c(Nc3ccc4c(n3)N(COP(=O)(O)O)C(=O)C(C)(C)O4)n2)cc(OC)c1OC [Fostamatinib] (top concentration tested 2500 nM) | 2.07 | 3.18 | 4.33 | 4.18
12 | C[C@]12CC[C@@H]3c4ccc(O)cc4C[C@@H](CCCCCCCCC[S+]([O-])CCCC(F)(F)C(F)(F)F)[C@H]3[C@@H]1CC[C@@H]2O (stereo not given in full) [Fulvestrant] (top concentration tested 1000 nM) | 0 | 0.46 | 1.69 | 1.8
13 | O=C(NOCCO)c1ccc2cncn2c1Nc1ccc(I)cc1F [GDC-0623] (top concentration tested 2500 nM) | 0 | 0 | 0 | 0
14 | Cn1nccc1Nc1nccc(-c2ccn([C@H](CO)c3ccc(Cl)c(F)c3)c(=O)c2)n1 [GDC-0994] (top concentration tested 10000 nM) | 0 | 0 | 8.52 | 6.43
15 | CNc1nc(Nc2cn(C(C)(C)C#N)nc2C)ncc1C(F)(F)F [GNE-0877] (top concentration tested 1000 nM) | 0 | 0 | 3.78 | 0.56
16 | CCNc1nc(Nc2cc(F)c(C(=O)N3CCOCC3)cc2OC)ncc1C(F)(F)F [GNE-7915] (top concentration tested 1000 nM) | 0 | 0 | 4.87 | 2.71
17 | CCCc1cc(C)[nH]c(=O)c1CNC(=O)c1cc(-c2ccnc(N3CCN(C)CC3)c2)cc2c1cnn2C(C)C [GSK343] (top concentration tested 10000 nM) | 5.89 | 6.89 | 6.55 | 7.6
18 | CCCOc1ccn2c(C(C)=O)cc(-c3ccccc3S(C)(=O)=O)c2c1 [GSK2801] (top concentration tested 10000 nM) | 0 | 0 | 0 | 0

Row | Compound | drug sensitivity score (HEK293sieSTAT3(Y640F) [1]) | drug sensitivity score (HEK293sieSTAT3(wt) [2]) | drug sensitivity score (HEK293sieSTAT3(Y640F) [3]) | drug sensitivity score (HEK293sieSTAT3(wt) [4])
19 | CCOC(=O)CCNc1cc(N2CCc3ccccc3CC2)nc(-c2ccccn2)n1 [GSK-J4] (top concentration tested 100000 nM) | 10.8 | 10.9 | 18.8 | 19.4
20 | C[C@@H]1C=C2C(=O)O[C@@H]3CC[C@H](C1)[C@]23O [Galiellalactone] (top concentration tested 25000 nM) | 0.48 | 3.45 | 4.57 | 4.61
21 | Cc1cccc(-c2nn3c(c2-c2ccnc4ccc(C(N)=O)cc24)CCC3)n1 [Galunisertib] (top concentration tested 1000 nM) | 1.47 | 0 | 0 | 0
22 | Cc1cc(Nc2cc(CN3CCOCC3)c3nc(C)c(Cc4ccc(Cl)cc4F)n3n2)n[nH]1 [Gandotinib] (top concentration tested 10000 nM) | 2.66 | 6.79 | 5.34 | 8.78
23 | CC(C)c1cc(-c2n[nH]c(=O)n2-c2ccc3c(ccn3C)c2)c(O)cc1O [Ganetespib] (top concentration tested 1000 nM) | 6.77 | 23.1 | 20.6 | 27.4
24 | CN(C)C1CCN(C(=O)c2ccc(NC(=O)Nc3ccc(-c4nc(N5CCOCC5)nc(N5CCOCC5)n4)cc3)cc2)CC1 [Gedatolisib] (top concentration tested 1000 nM) | 0 | 0.82 | 12.9 | 9.54
25 | COc1cc2ncnc(Nc3ccc(F)c(Cl)c3)c2cc1OCCCN1CCOCC1 [Gefitinib] (top concentration tested 10000 nM) | 0 | 1.5 | 1.88 | 3.96
26 | Nc1ccn([C@@H]2O[C@H](CO)[C@@H](O)C2(F)F)c(=O)n1 [Gemcitabine] (top concentration tested 1000 nM) | 2.77 | 4.58 | 14.6 | 19.5
27 | CCN(CC)Cc1ccc2cc(COC(=O)Nc3ccc(C(=O)NO)cc3)ccc2c1 [Givinostat] (top concentration tested 1000 nM) | 4.23 | 6.08 | 10.8 | 11.6
28 | CN1CC[C@@H](NC(=O)Nc2ccc(C#N)cc2)C[C@@H]1c1nc2ccccc2[nH]1 [Glasdegib] (top concentration tested 1000 nM) | 0 | 0 | 3.01 | 0
29 | CN1CCN(C2CCN(C(=O)Nc3cc(Oc4ccc(NC(=O)C5(C(=O)Nc6ccc(F)cc6)CC5)c(F)c4)ccn3)CC2)CC1 [Golvatinib] (top concentration tested 2500 nM) | 0 | 0.24 | 2.77 | 1.49
30 | CC(C)C[C@H](NC(=O)[C@@H](COC(C)(C)C)NC(=O)[C@H](Cc1ccc(O)cc1)NC(=O)[C@H](CO)NC(=O)[C@H](Cc1c[nH]c2ccccc12)NC(=O)[C@H](Cc1cnc[nH]1)NC(=O)[C@@H]1CCC(=O)N1)C(=O)N[C@@H](CCCNC(=N)N)C(=O)N1CCC[C@H]1C(=O)NNC(N)=O [Goserelin] (top concentration tested 10000 nM) | 0 | 0 | 2.1 | 1.57
31 | O=S(=O)(c1cccc2c(O)nccc12)N1CCCNCC1 [Hydroxyfasudil] (top concentration tested 37500 nM) | 0 | 0 | 0.45 | 5.7
32 | NC(=O)NO [Hydroxyurea] (top concentration tested 100000 nM) | 0 | 0 | 4.19 | 1.75
33 | COc1cc2c(cc1-c1c(C)noc1C)ncc1[nH]c(=O)n([C@H](C)c3ccccn3)c12 [I-BET151] (top concentration tested 10000 nM) | 2.48 | 6.67 | 8.85 | 5.57
34 | O=C(O)c1ccc(O)c2ncccc12 [IOX-1] (top concentration tested 100000 nM) | 0 | 0 | 1.18 | 2.26
35 | O=C(O)CNC(=O)c1c(O)c2ccccc2n(Cc2ccccc2)c1=O [IOX-2] (top concentration tested 50000 nM) | 0 | 0 | 0 | 2.91
